Data from article PMC2939063, “In Vitro and In Vivo Studies of the Trypanocidal Properties of WRR-483 against Trypanosoma cruzi” (PLoS Neglected Tropical Diseases, 2010).
Values joined by “and” are separate entries in the source; they are usually repeats but may differ in a detail not shown here. Identical values can stand only once.

Assays:
Cathepsin S = target: T1, Cathepsin S (Homo sapiens, UniProt P25774); assay: Protease inhibition profiling (Reaction Biology Corp): Cathepsin S; type: biochemical
T1 construct: Reaction Biology Corp (screening service)

Cathepsin L = target: T2, Cathepsin L (Homo sapiens, UniProt P07711); assay: Protease inhibition profiling (Reaction Biology Corp): Cathepsin L; type: biochemical
T2 construct: Reaction Biology Corp (screening service)

Cathepsin V = target: T3, Cathepsin V (Homo sapiens, UniProt O60911); assay: Protease inhibition profiling (Reaction Biology Corp): Cathepsin V; type: biochemical; conditions: read-out: IC50, Cathepsin V
T3 construct: Reaction Biology Corp (screening service)

[1] = test system: T. cruzi infection in BESM cells; assay: Dose-response against T. cruzi infection in BESM cells; type: cell-based, Trypanosoma cruzi CA-I/72; conditions: Trypanosoma cruzi, 72 h
Protocol: Monolayers were then infected with 1000 trypomastigotes/well of CA-I/72 T. cruzi for 2 h at 37°C. […] Cultures were then incubated for 72 h at 37°C in a humidified atmosphere with 5% CO2. Cultures were next fixed in 4% fresh paraformaldehyde in PBS, stained with DAPI, and counted under a fluorescence microscope (400×). Mean numbers of parasites per cell (±SE) were calculated as previously reported (n = 3-4 per concentration). Controls consisted of untreated wells and cultures similarly treated with 10 μM […] and 0.1 μM posaconazole.

Cathepsin K = target: T4, Cathepsin K (Homo sapiens, UniProt P43235); assay: Protease inhibition profiling (Reaction Biology Corp): Cathepsin K; type: biochemical
T4 construct: Reaction Biology Corp (screening service)
T4 sequence (P43235 115-329): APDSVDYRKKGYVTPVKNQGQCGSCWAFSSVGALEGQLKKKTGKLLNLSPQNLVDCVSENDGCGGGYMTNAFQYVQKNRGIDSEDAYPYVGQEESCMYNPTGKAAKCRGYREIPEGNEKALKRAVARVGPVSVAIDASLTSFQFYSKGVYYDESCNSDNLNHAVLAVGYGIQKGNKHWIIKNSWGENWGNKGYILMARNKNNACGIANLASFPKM

Rhodesain = target: T5, Rhodesain (Trypanosoma brucei rhodesiense, UniProt Q95PM0); assay: Rhodesain enzyme assay (acetate buffer pH 5.5, Z-Phe-Arg-AMC); type: biochemical, T. brucei
T5 construct: made in house
Protocol: (§1) Cruzain[27],[28], rhodesain [29], and tbcatB [30] were recombinantly expressed as described previously. TbcatB assays were performed as described previously.[31] Cruzain (2 nM) or rhodesain (3 nM) was incubated with 0.5 to 10 µM inhibitor concentration in 100 mM sodium acetate at pH 5.5, containing 5 mM DTT (buffer A) for 5 min at room temperature. Then buffer A containing Z-Phe-Arg-AMC (Bachem, K M = 1 µM) was added to enzyme inhibitor to give 20 µM substrate concentration in 200 µL, and the increase in fluorescence (excitation at 355 nm and emission at 460 nm) was followed with an automated microtiter plate spectrofluorometer (Molecular Devices, Flex station). Inhibitor stock solutions were prepared at 20 mM in DMSO, and serial dilutions were made in DMSO (0.7% DMSO in assay). Controls were performed using enzyme alone and enzyme with DMSO. IC50 values were determined graphically using inhibitor concentrations in the linear portion of a plot of inhibition versus log[I] (seven concentrations tested with at least two in the linear range).
Inhibitor dilutions which produce simple exponential progress curves over a wide range of k obs, were used to determine kinetic parameters. The value of k obs, the rate constant for loss of enzyme activity, was determined from an equation for pseudo first order dynamics using Prism 4.0 (GraphPad). When k obs varied linearly with inhibitor concentration, k ass was determined by linear regression analysis. If the variation was hyperbolic, indicating saturation inhibition kinetics, k inact and K i were determined from an equation describing a two-step irreversible inhibitor mechanism [k obs = k inact [I]o/([I]o+Ki* (1+[S]o/K M))] and non-linear regression analysis Prism 4.0.[32] All values were corrected for substrate concentration.

[2] = Pharmacokinetic study (SRI international); conditions: in vivo
Description: (§2) In this study, we have identified WRR-483, as an effective agent to treat acute Chagas' disease in a murine model. […] The crystal structure of WRR-483 complexed to cruzain was solved and established the binding mode of the inhibitor to the enzyme. This structure was highlighted by the formation of a salt bridge between the guanidine moiety of the inhibitor and Glu208, but in a different conformation when compared to another structure of cruzain bound to a different arginine-containing inhibitor. […] The no observed adverse effect level (NOAEL) is higher than 100 mg/kg. […] Further studies to understand the precise mechanism of trypanocidal action of WRR-483 and design of analogs with improved bioavailability are currently underway.

Cruzain = target: T6, Cruzain (Trypanosoma cruzi, UniProt P25779); assay: Cruzain enzyme assay (acetate buffer pH 5.5, Z-Phe-Arg-AMC); type: biochemical; conditions: 100 mM sodium acetate pH 5.5, 5 mM DTT
T6 construct: made in house
Protocol: as §1, with “(seven concentrations tested with at least two in the linear range).” left out
Inhibitor dilutions which produce simple exponential progress curves over a wide range of k obs, were used to determine kinetic parameters. The value of k obs, the rate constant for loss of enzyme activity, was determined from an equation for pseudo first order dynamics using Prism 4.0 (GraphPad). When k obs varied linearly with inhibitor concentration, k ass was determined by linear regression analysis. […]

cathepsin H = target: T7, cathepsin H (Homo sapiens, UniProt P09668); assay: Protease inhibition profiling (Reaction Biology Corp): cathepsin H; type: biochemical; conditions: panel of 70 proteases
T7 construct: Reaction Biology Corp (screening service)
T7 sequence (P09668 98-335): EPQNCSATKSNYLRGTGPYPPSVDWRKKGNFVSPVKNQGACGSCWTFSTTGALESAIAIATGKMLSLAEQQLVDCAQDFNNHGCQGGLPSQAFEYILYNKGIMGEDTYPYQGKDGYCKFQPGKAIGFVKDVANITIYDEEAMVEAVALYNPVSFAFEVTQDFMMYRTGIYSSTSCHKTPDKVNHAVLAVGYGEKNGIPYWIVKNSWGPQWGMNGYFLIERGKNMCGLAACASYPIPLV

Cathepsin B = target: T8, Cathepsin B (Homo sapiens, UniProt P07858); assay: Protease inhibition profiling (Reaction Biology Corp): Cathepsin B; type: biochemical
T8 construct: Reaction Biology Corp (screening service)

[3] = Toxicology study (SRI international); conditions: in vivo; read-out: no observed adverse effect level (NOAEL)
Description: as §2

Entamoeba histolytica = conditions: human colonic xenograft model; cited from earlier work
[4] = test system: T. cruzi infected J774 macrophages; assay: T. cruzi growth inhibition in infected J774 macrophages (cell survival); type: cell-based, Trypanosoma cruzi CA-I/72; conditions: 10 µM inhibitor every 48 h until Day 27, experiment terminated on Day 47, untreated control 6 days
Protocol: CA-I/72 T. cruzi parasites were isolated from a chronic Chagasic patient, cloned, and maintained as previously described.[33]
For growth inhibition studies, J774 macrophages cultured in RPMI-1640 medium with 5% heat inactivated fetal calf serum (FCS) were irradiated (9000 rad) to arrest the cell cycle and plated onto 12-well tissue culture plates for 24 h at 37°C. After infection with 10^5 T. cruzi trypomastigotes per well for 2 hours, monolayers were washed with RPMI medium and treated with the inhibitors at 10 µM in RPMI medium (triplicate wells per inhibitor). Inhibitor stocks were made to 10 mM in DMSO and diluted prior to use. All assays include untreated, K11777-treated, and uninfected macrophage controls. Fresh medium with or without inhibitor was replaced every 48 h and inhibitor efficacy was monitored daily. Survival time was defined as the time before the cell monolayer was destroyed by the infection. Under these culture conditions, T. cruzi completed the intracellular cycle in 6 days in untreated controls. […] Macrophages were subsequently cultured in normal medium for up to 40 days to elucidate if the effective inhibitors were trypanocidal (cure host macrophages) or trypanostatic (delay intracellular cycle of the parasite).

T5 sequence (Q95PM0 entry or part of it): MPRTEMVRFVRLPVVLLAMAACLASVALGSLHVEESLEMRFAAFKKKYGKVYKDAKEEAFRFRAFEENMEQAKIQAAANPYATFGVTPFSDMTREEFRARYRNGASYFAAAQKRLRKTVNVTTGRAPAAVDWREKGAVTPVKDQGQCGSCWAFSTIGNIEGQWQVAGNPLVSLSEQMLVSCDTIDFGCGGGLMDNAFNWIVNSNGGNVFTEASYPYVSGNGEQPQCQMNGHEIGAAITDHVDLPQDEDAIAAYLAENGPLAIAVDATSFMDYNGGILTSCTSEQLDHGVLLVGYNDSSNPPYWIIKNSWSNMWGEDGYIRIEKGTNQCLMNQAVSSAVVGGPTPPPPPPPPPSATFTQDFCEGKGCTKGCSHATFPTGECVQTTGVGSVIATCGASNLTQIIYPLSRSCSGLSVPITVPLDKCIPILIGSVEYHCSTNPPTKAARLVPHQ
T6 sequence (P25779 123-337 limits assumed): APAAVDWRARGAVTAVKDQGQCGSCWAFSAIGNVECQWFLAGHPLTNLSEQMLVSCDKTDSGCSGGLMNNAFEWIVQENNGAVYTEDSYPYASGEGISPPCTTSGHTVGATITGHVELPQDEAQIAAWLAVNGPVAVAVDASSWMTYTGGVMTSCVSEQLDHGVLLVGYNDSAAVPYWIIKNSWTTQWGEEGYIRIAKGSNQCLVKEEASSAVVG
T3 sequence (O60911 114-334, species assumed): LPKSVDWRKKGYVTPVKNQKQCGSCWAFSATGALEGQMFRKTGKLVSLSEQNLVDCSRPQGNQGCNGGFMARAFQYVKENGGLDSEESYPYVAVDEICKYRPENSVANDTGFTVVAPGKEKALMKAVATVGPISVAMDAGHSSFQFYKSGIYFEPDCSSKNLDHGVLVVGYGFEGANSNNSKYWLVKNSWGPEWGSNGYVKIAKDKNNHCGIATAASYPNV
T1 sequence (P25774 115-331, species assumed): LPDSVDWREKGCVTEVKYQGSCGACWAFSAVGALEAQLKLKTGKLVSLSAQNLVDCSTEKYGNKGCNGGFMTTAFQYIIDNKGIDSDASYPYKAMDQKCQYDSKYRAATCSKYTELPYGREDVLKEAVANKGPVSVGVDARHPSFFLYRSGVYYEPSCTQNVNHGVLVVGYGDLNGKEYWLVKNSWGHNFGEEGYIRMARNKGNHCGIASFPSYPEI
T2 sequence (P07711 114-333, species assumed): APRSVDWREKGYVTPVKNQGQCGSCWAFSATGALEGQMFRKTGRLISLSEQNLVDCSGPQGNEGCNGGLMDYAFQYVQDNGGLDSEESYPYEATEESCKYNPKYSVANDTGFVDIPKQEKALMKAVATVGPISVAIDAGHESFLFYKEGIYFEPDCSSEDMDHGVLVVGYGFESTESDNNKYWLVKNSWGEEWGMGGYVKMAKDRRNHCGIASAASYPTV

CN1CCN(C(=O)N[C@@H](CCCNC(=N)N)C(=O)N[C@H](/C=C/S(=O)(=O)c2ccccc2)CCc2ccccc2)CC1 [WRR-483]
IC50 (Cathepsin S): 1.4 ± 0.01 nM | IC50 (Cathepsin L): 53 ± 4 nM | IC50 (Cathepsin V): 335 ± 4 nM | EC50 [1]: 200 nM | IC50, Cathepsin K (Cathepsin K): No inhibition | k obs/[I] at 1 µM, Rhodesain (Rhodesain; 100 mM sodium acetate pH 5.5, 5 mM DTT): No inhibition | inhibition of rhodesain (Rhodesain; even at 10 µM concentration): no inhibition | Vd ([2]; 10 mg dose iv): 15.1 L/kg | clearance ([2]; 10 mg dose iv): 27.5 mL/min/kg | half-life ([2]; 10 mg dose iv): 6.4 h | bioavailability ([2]; oral, read-out: oral bioavailability %F): < 1% | k obs/[I] at 1 µM, Cruzain (Cruzain): 4,800 s^-1 M^-1 and 4,800±480 s^-1 M^-1 | inhibition of cathepsin H (cathepsin H): no inhibition | IC50 (Cathepsin B): 3.9 ± 0.1 nM | NOAEL [3]: > 100 mg/kg | reduction of amebic invasion (Entamoeba histolytica): 95% | T. cruzi infected cell survival [4]: 47 days
